# Assay results taken from patent US7901906B2, “Targeting of MKRN1 for identifying cancer treatment agents” (University of Central Florida Research Foundation, Inc., priority 2006, dated 2011).
# Non-standard residues stand in square brackets, D forms with d. Residues, ends and D or L forms follow the SMILES beside them. *: point of attachment. Nle = CCCC[C@H](N)C(=O)O; Cbz = O=C(OCc1ccccc1)*
# Experiments:
# MKRN1 = test: Levels of ectopically expressed MKRN1 by anti-V5 immunoblotting; assay type: cell-based, human
# Protocol: FIG. 3. MKRN1 interacts with hTERT. (A) Analysis of the physical interaction between hTERT and MKRN1 using the yeast two-hybrid assay. Five domains of hTERT were analyzed for binding to MKRN1. TRF1 bait was used as a negative control. Blue signal on the SG-HWU/X plate indicates activation of the reporter gene, LacZ. S, synthetic; G, galactose; H, histidine (−); W, tryptophan (−); U, uracil (−); X, X-gal. (B) Schematic diagram of MKRN1 domains. Amino acid sequences (SEQ ID NOS 3-5, respectively in order of appearance) surrounding the RING finger domain in MKRN1 and mutants used in this study. Cysteines and a histidine in the RING finger domain are shown in red. Mutated residue in MKRN1^H307E is shown in blue. (C) H1299 cells co-transfected with hTERT-HA and MKRN1-V5 were either untreated or treated for 2 hours with 10 μg/ml ALLnN. Anti-HA immunoprecipitates were analyzed by immunoblotting using an anti-V5 antibody probe. […] (D) H1299 cells co-transfected with Flag-hTERT and MKRN1-V5 were either untreated or treated for 2 hours with 10 μM MG132. Anti-Flag immunoprecipitates were analyzed by immunoblotting using an anti-V5 antibody probe. […] Flag-hTERT was visualized with an anti-Flag antibody probe.
# (§1) FIG. 4. MKRN1 functions as an E3 ubiquitin-ligase for hTERT in vitro and in vivo. (A) HA-tagged hTERT (residues 946-1132) was incubated MKRN1 or mutants in the presence of E1, E2, His6-ubiquitin (6×His tag disclosed as SEQ ID NO: 7). Samples were resolved by 6% SDS-PAGE and analyzed by immunoblotting with an anti-HA antibody probe. (B) H1299 cells were co-transfected with Flag-hTERT, HA-ubiquitin, MKRN1-V5, and together with either MKRN1^H307E-V5 or MKRN1^Δ^C-V5 as specified. Cells were untreated or treated with 10 μM MG132 for 2 hours. Anti-Flag immunoprecipitates and cell lysates were analyzed by immunoblotting with anti-HA antibody and anti-V5 antibody probes, respectively. (C) H1299 cells co-transfected with Flag-hTERT and HA-ubiquitin, and together with or without MKRN1-V5 as indicated were treated with 10 μM MG132 for the indicated times. Anti-Flag immunoprecipitates and cell lysates were analyzed by immunoblotting with anti-HA antibody and anti-V5 antibody probes, respectively.
# FIG. 5. Overexpression of MKRN1 decreases telomerase activity and telomere length. (A) HT1080 cells were stably transfected with MKRN1-V5 or an empty vector. The cells were untreated or treated for 2 hours with 10 μM MG132. Cell lysates were analyzed by immunoblotting with anti-V5 antibody probe. (B) Stable HT1080 cell lines (MKRN1 and vector) were harvested at 45 PD, and telomerase activities were measured with different amounts of proteins using the TRAP assay. The lane labeled LB corresponds to the negative control (lysis buffer only). ITAS represents the internal telomerase assay standard. (C) Cell lysates from stable HT1080 cell lines were analyzed by immunoprecipitation with anti-hTERT antibody followed by immunoblotting using same antibody probe. (D) Representative results of RT-PCR analysis for the expression of MKRN1, hTERT, and hTR in stable HT1080 cell lines. RT-PCR products from each sample were normalized to glyceraldehyde-3-phosphate dehydrogenase (GAPDH) signal. (E) Stable HT1080 cell lines were harvested at 45 PD, and genomic DNA was digested with RsaI and HinfI, followed by Southern blotting using a telomere repeat probe.
# H1299 cells were transiently transfected with the expression vectors indicated in the figure legends using TransFast transfection reagent (Promega, Madison, Wis.) according to the manufacturer's instructions. Cells were lysed with buffer containing 0.5% NP-40, 50 mM Tris-HCl (pH 7.5), 150 mM NaCl, 2 mM phenyl methylsulphonyl fluoride. […]
# hTERT = test: Ubiquitination of hTERT in H1299 cells (immunoprecipitation, anti-HA immunoblot); assay type: cell-based, human
# Protocol: FIG. 2. hTERT is ubiquitinated prior to proteasome-mediated degradation. (A) H1299 cells were co-transfected with Flag-hTERT and HA-ubiquitin. Cells were either untreated or treated for 2 hours with 10 μg/ml ALLnN or 0.1 μM GA, or a combination of the two as specified above each lane. Immunoprecipitation was performed with anti-Flag antibody before probing with anti-hTERT or anti-HA antibodies as indicated besides each blot. Molecular weight markers are shown in kilodaltons. (B) H1299 cells co-transfected with Flag-hTERT and HA-ubiquitin were treated for 1 hour with the GA concentration indicated in the presence of 10 μM MG132. Immunoprecipitation was performed with anti-Flag antibody followed by immunoblotting using an anti-HA antibody probe. (C) H1299 cells co-transfected with Flag-hTERT and HA-ubiquitin were either untreated or treated for 2 hours with 10 μg/ml ALLnN as specified above each lane. Proteins were immunoprecipated with anti-Flag antibody followed by immunoblotting using an anti-HA antibody probe.
# as §1
# H1299 cells were transiently transfected with the expression vectors indicated in the figure legends using TransFast transfection reagent (Promega, Madison, Wis.) according to the manufacturer's instructions. Cells were lysed with buffer containing 0.5% NP-40, 50 mM Tris-HCl (pH 7.5), 150 mM NaCl, 2 mM phenyl methylsulphonyl fluoride. After centrifugation at 12,000 rpm for 30 min, the supernatants were immunoprecipitated for 2 hours with anti-Flag (Sigma, St. Louis, Mo.) or anti-HA (Santa Cruz biotechnology, Santa Cruz, Calif.) antibodies and then incubated with Sepharose beads conjugated to Protein G (Amersham Biosciences Inc., Piscataway, N.J.). When ubiquitin conjugates of hTERT were detected, immunoprecipitation was performed with lysis buffer containing 0.1% SDS to dissociate its interacting proteins. Immunoblot analyses were performed using anti-hTERT (Santa Cruz biotechnology, Santa Cruz, Calif.), anti-V5 (Invitrogen, Carlsbad, Calif.), anti-HA, and anti-Flag antibodies.
# GA-mediated protein degradation by the proteasome depends on conjugation of ubiquitin to the Hsp90 client protein (Isaacs et al. 2002; Citri et al. 2002). To determine whether hTERT is ubiquitinated in vivo prior to its degradation, H1299 cells co-transfected with Flag-tagged hTERT and HA-tagged ubiquitin constructs were treated with GA, ALLnN (a general proteasome inhibitor) or both. The immunoprecipitated products were evaluated by immunoblotting with selected probes as described in FIG. 2. […]
structure (smiles),measurement,setting,value
CCCC[C@@H](C=O)NC(=O)[C@H](CC(C)C)NC(=O)[C@H](CC(C)C)NC(C)=O [ALLnN] (Ac-Leu-Leu-[Nle]-aldehyde),MKRN1 species in cell lysates,"MKRN1; H1299 co-transfected with hTERT-HA and MKRN1-V5, 10 μg/ml ALLnN, 2 hours",significant increase
same,polyubiquitinated hTERT forms in absence of GA,"hTERT; H1299, 10 μg/ml ALLnN, 2 hours, FIG. 2C",significantly elevated
same,ubiquitinated hTERT,"hTERT; H1299 Flag-hTERT and HA-ubiquitin, 10 μg/ml ALLnN, 2 hours, FIG. 2A",dramatically elevated
CC(C)C[C@@H](C=O)NC(=O)[C@H](CC(C)C)NC(=O)[C@H](CC(C)C)NC(=O)OCc1ccccc1 [MG132] (Cbz-Leu-Leu-Leu-aldehyde),MKRN1 expression,"MKRN1; H1299, MKRN1-V5, 10 μM MG132, 2 hours",clearly elevated
same,unmodified and polyubiquitinated MKRN1 species over time,"MKRN1; H1299, MKRN1-V5, 10 μM MG132, indicated times",increased in a time-dependent manner
same,amount of MKRN1^ΔC,"MKRN1; H1299, MKRN1^ΔC-V5, 10 μM MG132, 2 hours",no effect
same,"MKRN1^H307E expression level, MG132 treatment versus absence","MKRN1; H1299 cotransfected with MKRN1 and MKRN1^H307E, 10 μM MG132",~2 fold
same,MKRN1 level in stable HT1080 cells,"MKRN1; HT1080 stably expressing MKRN1-V5, 10 μM MG132, 2 hours",substantial increase
same,hTERT-ubiquitin conjugates without MKRN1 co-expression,"hTERT; H1299 Flag-hTERT plus HA-ubiquitin, 10 μM MG132, 45-60 minutes",low levels were detected
same,ubiquitin conjugates of hTERT,"hTERT; H1299 co-transfected with Flag-hTERT, HA-ubiquitin, MKRN1-V5, 10 μM MG132, 2 hours",easily detected
